Holding throughout (assay type): in vivo
For experiment [1], the system named is indica. In words: Comprehensive assay of compounding thidiazuron and polyglutamic acid on growth regulation of indica (field, stem and leaf spraying). Conditions: 50 a.i. mg/kg. The procedure:
(§1) 1. Comprehensive Assay Test of Compounding Thidiazuron and Polyglutamic Acid on Growth Regulation of Indica
(§2) Thidiazuron and polyglutamic acid were diluted with acetone according to a certain concentration and were sprayed to stems and leaves of crops, and influence of concentrations on growth of crops is assayed in the field, including comprehensive evaluation on plant height, spike number, setting percentage, disease-resistant condition, yield condition and the like of the crops. Plant height control rate=(plant height of a clean water control group-processed plant height)/plant height of the clean water control group*100% Spike number increase ratio=(processed plant spike number-plant spike number of a clean water control group)/plant spike number of the clean water control group*100% Setting percentage=filled grain number per spike/total grain number per spike*100% Prevention effect=(disease index of a clean water control group-processed disease index)/disease index of the clean water control group*100% Yield per mu increase ratio=(processed yield per mu-yield per mu of a clean water control group)/yield per mu of the clean water control group*100%

Experiment [2] deals with maize. In words: Field comprehensive test of mixing thidiazuron and polyglutamic acid on growth regulation and production increase of maize. To be noted: 40 a.i. mg/kg. The procedure:
as §2
(§3) 1. Field Comprehensive Test of Mixing Thidiazuron and Polyglutamic Acid on Growth Regulation and Disease Resistance and Production Increase of Maize Crops
(§4) Sorghum variety: Suyu 23.
Pesticide application stage: a big horn stage of maize and a blooming stage of maize in which diseases such as Southern corn leaf blight are prone to occur.
Pesticide application number of times: 2 times, 6 days asan interval. The examples of the preparation of the present invention are sprayed for three repeated times, and the result is the mean value.

For experiment [3], the system named is Southern corn leaf blight. As to the kind of experiment: Prevention of Southern corn leaf blight in the maize field comprehensive test. To be noted: 40 a.i. mg/kg. The method, then:
as §2, §3, §4
Pesticide application stage: a big horn stage of maize and a blooming stage of maize in which diseases such as Southern corn leaf blight are prone to occur. […]

The subject of experiment [4] is banded sclerotial blight of indica. In words: Disease control of banded sclerotial blight in the indica comprehensive assay. To be noted: 50 a.i. mg/kg. The procedure: as §1, §2

As for `O=C(Nc1ccccc1)Nc1cnns1` [Thidiazuron], in experiment [1], the “Spike Number of Single Plant” value came out at 18.1 grains, the “Total Grain Number of Spike” value is recorded as 145.7 grains and the “filled grain number per spike” value amounted to 132.2 grains. The “Setting Percentage” value in experiment [1] (filled grain number per spike/total grain number per spike) worked out at 90.7%. For the same compound, in experiment [1] (stem and leaf spraying 2 times, 8 days interval, investigated at later grouting stage), the “Plant Height” value is 121.2 cm. In experiment [1] (vs clean water control group), the “Plant Height Control Rate” value stood at 5.0%, the “Production Increase Ratio (yield per mu increase ratio)” value came out at 5.5% and the “Spike Number Increase Ratio” value worked out at 4.0%. For the same compound, in experiment [1] (yield per mu), the Output is listed as 537.5 667 M^2. In addition, in experiment [2], the “Stem Diameter” value came to 2.50 cm and the Thousand seed weight is 249.0 g. Further, in experiment [2] (applied 2 times, 6 days interval, mean of three repeats), the “Plant Height” value was determined as 129.0 cm. Further, in experiment [2] (vs clean water control group), the “Control Rate (plant height)” value is recorded as 5.4%; the “Increase Ratio (output, unit yield per mu)” value is 6.1%; the “Increase Ratio (stem diameter)” value was found to be 5.4%; the “Increase Ratio (thousand seed weight)” value amounted to 5.4%. Besides, the Output in experiment [2] (yield per mu) was 637.9 667M^2. The “Southern corn leaf blight” value in experiment [3] (disease index) was 14.74. The “Prevention Effect” value in experiment [3] (Southern corn leaf blight, vs clean water control group) is on record as 51.11%. Moreover, the “Prevention Effect” value in experiment [4] (banded sclerotial blight of indica, vs clean water control group) stood at 49.8%. In experiment [4] (indica), the “Disease Index of Banded Sclerotial Blight” value is listed as 14.8.

For the origin of these results see US11576383B2, “Pesticide composition containing thidiazuron and polyglutamic acid” (JIANGSU HUIFENG BIO AGRICULTURE CO., LTD., priority 2017, dated 2023).
